# Laboratory results as given in ChEMBL document CHEMBL2331254, “Pyrrolopyrimidine inhibitors of DNA gyrase B (GyrB) and topoisomerase IV (ParE), Part II: development of inhibitors with broad spectrum, Gram-negative antibacterial activity” (Bioorg Med Chem Lett, 2013).
# Tests used:
# Escherichia coli [1] = experiment: Antibacterial activity against Escherichia coli BW25113 harboring deltatolC by broth microdilution method; assay type: functional
# [2] = Inhibition of Escherichia coli parE assessed as release of inorganic phosphate from ATP hydrolysis after 30 mins by coupled spectrophotometric assay
# Escherichia coli [3] = experiment: Antibacterial activity against wild type Escherichia coli ATCC 25922 by broth microdilution method; assay type: functional
# Staphylococcus aureus [4] = experiment: Antibacterial activity against Staphylococcus aureus ATCC 13709 by broth microdilution method; assay type: functional
# Escherichia coli [5] = experiment: Antibacterial activity against permeabilized Escherichia coli IBAS849 by broth microdilution method; assay type: functional
# [6] = Inhibition of Francisella tularensis GyrB assessed as release of inorganic phosphate from ATP hydrolysis after 30 mins by coupled spectrophotometric assay
# [7] = Inhibition of Francisella tularensis parE assessed as release of inorganic phosphate from ATP hydrolysis after 30 mins by coupled spectrophotometric assay
# [8] = Inhibition of Escherichia coli GyrB assessed as release of inorganic phosphate from ATP hydrolysis after 30 mins by coupled spectrophotometric assay
# Pseudomonas aeruginosa = experiment: Antibacterial activity against Pseudomonas aeruginosa PAO1 by broth microdilution method; assay type: functional
# Klebsiella pneumoniae = experiment: Antibacterial activity against Klebsiella pneumoniae ATCC 700603 by broth microdilution method; assay type: functional
# Staphylococcus aureus [9] = experiment: Antibacterial activity against Staphylococcus aureus ATCC 13709 by broth microdilution method in presence of 20% mouse serum; assay type: functional
# Escherichia coli [10] = experiment: Antibacterial activity against wild type Escherichia coli ATCC 25922 by broth microdilution method in presence of 20% mouse serum; assay type: functional
# Haemophilus influenzae = experiment: Antibacterial activity against Haemophilus influenzae ATCC 49247 by broth microdilution method; assay type: functional
# Streptococcus pneumoniae = experiment: Antibacterial activity against Streptococcus pneumoniae ATCC 51916 by broth microdilution method; assay type: functional
# Acinetobacter baumannii = experiment: Antibacterial activity against Acinetobacter baumannii ATCC 19606 by broth microdilution method; assay type: functional; settings: ATCC 19606 = CIP 70.34 = JCM 6841
compound,measurement,setting,value
CCc1[nH]c2nc(Sc3cnc4nccnc4c3)nc(N3C[C@@H]4[C@H](C3)[C@@]4(N)C(N)=O)c2c1Cl,MIC,Escherichia coli [1],0.25 µg/mL
same,Ki,[2],< 1 nM
same,MIC,Escherichia coli [3],> 64 µg/mL
same,MIC,Staphylococcus aureus [4],0.25 µg/mL
same,MIC,Escherichia coli [5],2 µg/mL
CCc1[nH]c2nc(Sc3cccnc3)nc(Cl)c2c1Cl,Ki,[6],488 nM
same,MIC,Escherichia coli [3],> 64 µg/mL
same,MIC,Staphylococcus aureus [4],4 µg/mL
same,MIC,Escherichia coli [5],> 64 µg/mL
CCc1[nH]c2nc(Sc3cnc4nccnc4c3)nc(N3CC(N)C3)c2c1Cl,Ki,[6],7 nM
same,MIC,Escherichia coli [1],4 µg/mL
same,Ki,[7],5 nM
same,MIC,Escherichia coli [3],64 µg/mL
same,MIC,Staphylococcus aureus [4],1 µg/mL
same,MIC,Escherichia coli [5],8 µg/mL
CCc1[nH]c2nc(Sc3ccc4c(c3)C(=O)NC4)nc(N3C[C@@H]4[C@@H](N)[C@@H]4C3)c2c1Cl,MIC,Escherichia coli [1],1 µg/mL
same,Ki,[2],8 nM
same,MIC,Escherichia coli [3],32 µg/mL
same,MIC,Staphylococcus aureus [4],0.5 µg/mL
same,Ki,[8],4 nM
same,MIC,Escherichia coli [5],4 µg/mL
CCc1[nH]c2nc(Sc3cncc(S(=O)(=O)N(C)C)c3)nc(N3C[C@@H]4[C@@H](N)[C@@H]4C3)c2c1Cl,MIC,Escherichia coli [1],4 µg/mL
same,Ki,[2],19 nM
same,MIC,Escherichia coli [3],> 64 µg/mL
same,MIC,Staphylococcus aureus [4],2 µg/mL
same,Ki,[8],2 nM
same,MIC,Escherichia coli [5],32 µg/mL
CCc1[nH]c2nc(Sc3ccc4ccc(C(=O)O)nc4c3)nc(N3CCC(N)C3)c2c1Cl (configuration not stated),MIC,Escherichia coli [1],8 µg/mL
same,Ki,[2],2 nM
same,MIC,Escherichia coli [3],> 64 µg/mL
same,MIC,Staphylococcus aureus [4],2 µg/mL
same,Ki,[8],< 0.5 nM
same,MIC,Escherichia coli [5],> 64 µg/mL
CCc1[nH]c2nc(Sc3ccc4[nH]cc(C(=O)O)c(=O)c4c3)nc(N3CCC(N)C3)c2c1Cl (configuration not stated),MIC,Escherichia coli [1],> 64 µg/mL
same,Ki,[2],1 nM
same,MIC,Escherichia coli [3],> 64 µg/mL
same,MIC,Staphylococcus aureus [4],> 64 µg/mL
same,Ki,[8],< 0.5 nM
same,MIC,Escherichia coli [5],> 64 µg/mL
CCc1[nH]c2nc(Sc3ccc4c(N5CCC(N)C5)nc(C(=O)O)nc4c3)nc(N3CCC(N)C3)c2c1Cl (configuration not stated),MIC,Escherichia coli [1],8 µg/mL
same,Ki,[2],1 nM
same,MIC,Escherichia coli [3],8 µg/mL
same,MIC,Staphylococcus aureus [4],8 µg/mL
same,Ki,[8],< 0.5 nM
same,MIC,Escherichia coli [5],4 µg/mL
CCc1[nH]c2nc(Sc3ccc4c(N)nc(C)nc4c3)nc(N3CCC(N)C3)c2c1Cl (configuration not stated),MIC,Escherichia coli [1],2 µg/mL
same,Ki,[2],2 nM
same,MIC,Escherichia coli [3],16 µg/mL
same,MIC,Staphylococcus aureus [4],2 µg/mL
same,Ki,[8],< 0.5 nM
same,MIC,Escherichia coli [5],8 µg/mL
CCc1[nH]c2nc(Sc3ccc4c(N5CC(N)C5)ncnc4c3)nc(N3CCC(N)C3)c2c1Cl (configuration not stated),MIC,Escherichia coli [1],4 µg/mL
same,Ki,[2],7 nM
same,MIC,Escherichia coli [3],8 µg/mL
same,MIC,Staphylococcus aureus [4],16 µg/mL
same,Ki,[8],< 0.5 nM
same,MIC,Escherichia coli [5],8 µg/mL
CCc1[nH]c2nc(Sc3ccc4cc5c([n+]([O-])c4c3)CCNC5)nc(N3CCC(N)C3)c2c1Cl (configuration not stated),MIC,Escherichia coli [1],4 µg/mL
same,Ki,[2],6 nM
same,MIC,Escherichia coli [3],16 µg/mL
same,MIC,Staphylococcus aureus [4],2 µg/mL
same,Ki,[8],< 0.5 nM
same,MIC,Escherichia coli [5],16 µg/mL
CCc1[nH]c2nc(Oc3cnc4cccnc4c3)nc(N3C[C@@H]4[C@@H](N)[C@@H]4C3)c2c1Cl,MIC,Pseudomonas aeruginosa,8 µg/mL
same,MIC,Escherichia coli [1],≤ 0.06 µg/mL
same,Ki,[7],0.6 nM
same,Ki,[2],0.9 nM
same,MIC,Escherichia coli [3],4 µg/mL
same,MIC,Staphylococcus aureus [4],≤ 0.06 µg/mL
same,Ki,[8],< 0.3 nM
same,MIC,Escherichia coli [5],1 µg/mL
same,MIC,Klebsiella pneumoniae,32 µg/mL
same,MIC,Staphylococcus aureus [9],0.13 µg/mL
same,MIC,Escherichia coli [10],4 µg/mL
same,MIC,Haemophilus influenzae,1 µg/mL
same,MIC,Streptococcus pneumoniae,≤ 0.06 µg/mL
same,MIC,Acinetobacter baumannii,4 µg/mL
CCc1[nH]c2nc(Oc3cnc4ccc[n+]([O-])c4c3)nc(N3CC[C@@H](N)C3)c2c1Cl,MIC,Pseudomonas aeruginosa,16 µg/mL
same,MIC,Escherichia coli [1],0.5 µg/mL
same,Ki,[7],1.1 nM
same,Ki,[2],4.6 nM
same,MIC,Escherichia coli [3],4 µg/mL
same,MIC,Staphylococcus aureus [4],0.13 µg/mL
same,Ki,[8],< 0.3 nM
same,MIC,Escherichia coli [5],1 µg/mL
same,MIC,Klebsiella pneumoniae,32 µg/mL
same,MIC,Staphylococcus aureus [9],0.13 µg/mL
same,MIC,Escherichia coli [10],2 µg/mL
same,MIC,Haemophilus influenzae,4 µg/mL
same,MIC,Streptococcus pneumoniae,1 µg/mL
same,MIC,Acinetobacter baumannii,8 µg/mL
CCc1[nH]c2nc(Sc3cnc4nccnc4c3)nc(N3CCC4(CCCN4)C3)c2c1Cl (configuration not stated),Ki,[6],6 nM
same,MIC,Escherichia coli [1],8 µg/mL
same,Ki,[2],35 nM
same,MIC,Escherichia coli [3],> 64 µg/mL
same,MIC,Staphylococcus aureus [4],4 µg/mL
same,MIC,Escherichia coli [5],16 µg/mL
CCc1[nH]c2nc(Sc3cnc4nccnc4c3)nc(N3CC4CNC4C3)c2c1Cl (configuration not stated),Ki,[6],< 1 nM
same,MIC,Escherichia coli [1],1 µg/mL
same,Ki,[2],2 nM
same,MIC,Escherichia coli [3],16 µg/mL
same,MIC,Staphylococcus aureus [4],0.5 µg/mL
same,MIC,Escherichia coli [5],2 µg/mL
CCc1[nH]c2nc(Sc3cnc4nccnc4c3)nc(N3CC4CCNC4C3)c2c1Cl (configuration not stated),Ki,[6],< 1 nM
same,MIC,Escherichia coli [1],2 µg/mL
same,Ki,[2],6 nM
same,MIC,Escherichia coli [3],32 µg/mL
same,MIC,Staphylococcus aureus [4],1 µg/mL
same,MIC,Escherichia coli [5],4 µg/mL
CCc1[nH]c2nc(Sc3cnc4nccnc4c3)nc(N3CC4CNCC4C3)c2c1Cl (configuration not stated),Ki,[6],< 1 nM
same,MIC,Escherichia coli [1],8 µg/mL
same,Ki,[2],17 nM
same,MIC,Escherichia coli [3],> 64 µg/mL
same,MIC,Staphylococcus aureus [4],2 µg/mL
same,MIC,Escherichia coli [5],8 µg/mL
CCc1[nH]c2nc(Sc3cnc4nccnc4c3)nc(N3C[C@@H]4[C@@H](N)[C@@H]4C3)c2c1Cl,Ki,[6],< 1 nM
same,MIC,Escherichia coli [1],0.5 µg/mL
same,Ki,[2],1 nM
same,MIC,Escherichia coli [3],8 µg/mL
same,MIC,Staphylococcus aureus [4],0.13 µg/mL
same,Ki,[8],< 0.5 nM
same,MIC,Escherichia coli [5],0.5 µg/mL
